# Source: patent publication US9409866B2, “Pyridine-2-amides useful as CB2 agonists” (Hoffmann-La Roche Inc., priority 2012, dated 2016)
# Where two headings read alike, the source gives them in different places.
# Assays:
# human CB2 receptors = human CB2 receptors (Homo sapiens (Human), UniProt P34972); test: functional cAMP assay, CHO cells expressing human CB2; type: cell-based
# Summary of the method: (§1)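 CHO cells with human CB1 or CB2 were switched to Krebs Ringer bicarbonate buffer with 1 mM IBMX for 30 min at 30 °C, then given compound for 30 min at 30 °C. cAMP was measured by time-resolved FRET against a cAMP standard curve, and EC50 values were calculated.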
# human CB1 receptors = human CB1 receptors (Homo sapiens (Human), UniProt P21554); test: functional cAMP assay, CHO cells expressing human CB1; type: cell-based; conditions: functional cAMP assay, CHO cells expressing human CB1
# Summary of the method: as §1
# Sequence of human CB1 receptors (P21554 whole entry): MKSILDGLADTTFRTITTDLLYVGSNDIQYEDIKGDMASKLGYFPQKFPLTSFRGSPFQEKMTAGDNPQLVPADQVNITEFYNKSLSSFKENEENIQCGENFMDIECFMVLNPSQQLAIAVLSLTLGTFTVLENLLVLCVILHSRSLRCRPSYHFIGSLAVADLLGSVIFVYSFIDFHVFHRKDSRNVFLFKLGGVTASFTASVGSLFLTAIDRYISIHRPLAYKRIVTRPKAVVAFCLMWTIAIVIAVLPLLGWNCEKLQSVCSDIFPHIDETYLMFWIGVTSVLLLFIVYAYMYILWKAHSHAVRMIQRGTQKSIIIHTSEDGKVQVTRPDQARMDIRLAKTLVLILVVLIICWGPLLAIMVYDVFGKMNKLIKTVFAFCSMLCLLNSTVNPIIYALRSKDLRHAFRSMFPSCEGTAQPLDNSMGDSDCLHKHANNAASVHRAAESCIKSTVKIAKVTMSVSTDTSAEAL
# Sequence of human CB2 receptors (P34972 whole entry): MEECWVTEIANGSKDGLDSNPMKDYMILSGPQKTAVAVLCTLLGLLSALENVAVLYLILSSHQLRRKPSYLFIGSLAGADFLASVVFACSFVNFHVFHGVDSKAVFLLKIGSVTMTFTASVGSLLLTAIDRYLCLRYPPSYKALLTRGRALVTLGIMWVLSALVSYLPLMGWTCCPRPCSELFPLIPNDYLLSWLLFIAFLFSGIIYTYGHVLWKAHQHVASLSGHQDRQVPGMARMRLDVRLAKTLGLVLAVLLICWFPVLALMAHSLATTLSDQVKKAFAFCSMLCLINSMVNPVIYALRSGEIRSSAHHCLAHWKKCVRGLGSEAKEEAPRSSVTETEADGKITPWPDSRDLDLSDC
Compound,EC50 (human CB2 receptors; read-out: Human CB2 EC50),EC50 (human CB1 receptors; read-out: Human CB1 EC50),EC50 (human CB2 receptors; Human CB2 EC50 (uM)),EC50 (human CB1 receptors; Human CB1 EC50 (uM))
"CC(CC(N)=O)(NC(=O)c1cc(OCC(F)(F)F)c(C2(F)CCC2)cn1)C1CC1 (stereo not shown) [Example 300, N-(4-amino-2-cyclopropyl-4-oxobutan-2-yl)-5-(1-fluorocyclobutyl)-4-(2,2,2-trifluoroethoxy)picolinamide]",0.0067 µM,> 10 µM,,
"Cc1nc(C(C)(CS(C)(=O)=O)NC(=O)c2cc(O[C@@H](C)C(F)(F)F)c(C3CC3)cn2)no1 (stereo partly drawn) [Example 81, 5-Cyclopropyl-4-((S)-2,2,2-trifluoro-1-methyl-ethoxy)-pyridine-2-carboxylic acid [2-methanesulfonyl-1-methyl-1-(5-methyl-[1,2,4]oxadiazol-3-yl)-ethyl]-amide]",,,0.0053 µM,0.19 µM
"Cn1nnc(C(NC(=O)c2cc(OCC(F)(F)F)c(C3CC3)cn2)C(C)(C)C)n1 (stereo not shown) [Example 163, 5-cyclopropyl-N-[2,2-dimethyl-1-(2-methyltetrazol-5-yl)propyl]-4-(2,2,2-trifluoroethoxy)pyridine-2-carboxamide]",0.0045 µM,> 10 µM,,
"Cc1nc(C(C)(CS(C)(=O)=O)NC(=O)c2cc(OCC(F)F)c(C3CC3)cn2)no1 (single isomer, unassigned) [Example 283, 5-cyclopropyl-4-(2,2-difluoroethoxy)-N-(2-(5-methyl-1,2,4-oxadiazol-3-yl)-1-(methylsulfonyl)propan-2-yl)picolinamide]",,,0.0533 µM,> 10 µM
"CCC(CC)(NC(=O)c1cc(OCC2(C)COC2)c(C2CC2)cn1)C(=O)NCCCF [Example 234, 5-cyclopropyl-N-[3-(3-fluoropropylcarbamoyl)pentan-3-yl]-4-[(3-methyloxetan-3-yl)methoxy]pyridine-2-carboxamide]",0.455 µM,> 10 µM,,
"Cc1nc(C(C)(CS(C)(=O)=O)NC(=O)c2cc(O[C@@H](C)C(F)(F)F)c(C3CCC3)cn2)no1 (stereo partly drawn) [Example 111, 5-Cyclobutyl-4-((S)-2,2,2-trifluoro-1-methyl-ethoxy)-pyridine-2-carboxylic acid [2-methanesulfonyl-1-methyl-1-(5-methyl-[1,2,4]oxadiazol-3-yl)-ethyl]-amide]",0.003 µM,0.43 µM,,
"CCC(CC)(NC(=O)c1cc(OCC2(C)COC2)c(C2CC2)cn1)C(=O)NCC(F)CCl (stereo not shown) [Example 235, N-[3-[[3-chloro-2-fluoropropyl]carbamoyl]pentan-3-yl]-5-cyclopropyl-4-[(3-methyloxetan-3-yl)methoxy]pyridine-2-carboxamide]",0.293 µM,> 10 µM,,
"CC(C)C(CCO)NC(=O)c1cc(OCC2CC2)c(Cl)cn1 (stereo not shown) [Example 18, 5-Chloro-4-cyclopropylmethoxy-pyridine-2-carboxylic acid [1-(2-hydroxy-ethyl)-2-methyl-propyl]-amide]",0.149 µM,> 10 µM,,
